# Test: Biological stability of VIP in follicular fluid (ELISA, during defrosting)
# Assay type: in vitro ADME
# Conditions: human follicular fluid samples from IVF patients, stored at -80°C, measured during defrosting process; read-out sandwich ELISA (450 nm); p<0.05; Supplementary Figure 1
# Procedure: FF was obtained after oocyte retrieval during IVF according to the following procedure. The follicular fluid aspirated from each patient was pooled in conical bottomed 15 ml polypropylene tubes and centrifugated at 1000 g for 3 minutes at 21°C. The supernatant was collected, transported to the laboratory and stored at -80°C until further analysis.
# The enzyme-linked immunosorbent assay (ELISA) used to quantify VIP in follicular samples was based on the principle of sandwich enzyme immunoassay. The quantification was performed following manufacturer’s protocol of ELISA kit (ELK Biotechnology CO., Ltd). Briefly, the microtiter plate provided has been pre-coated with an antibody specific for VIP. 100 μL of standards and samples were added to the appropriate microtiter plate wells and incubated for 80 minutes at 37°C. After the wash, 100 μl/well of biotin-conjugated antibody solution was added and incubated for 50 minutes at 37°C. […] Next, a final wash was performed and 90 μL of 5-5’-tetramethylbenzidine (TMB) substrate solution was added and the color development was monitored and quantified after the addition of sulfuric acid solution. The absorbance was measured spectrophotometrically at 450 nm by using microplate spectrophotometer (Labsystem Multiskan MS). […] The concentration of VIP in the samples was determined by comparing the optical density of the samples to the standard curve. […]
compound,measurement,value
"CC[C@H](C)[C@H](NC(=O)[C@H](CO)NC(=O)[C@H](CC(N)=O)NC(=O)[C@H](CC(C)C)NC(=O)[C@H](Cc1ccc(O)cc1)NC(=O)[C@H](CCCCN)NC(=O)[C@H](CCCCN)NC(=O)[C@@H](NC(=O)[C@H](C)NC(=O)[C@H](CCSC)NC(=O)[C@H](CCC(N)=O)NC(=O)[C@H](CCCCN)NC(=O)[C@H](CCCN=C(N)N)NC(=O)[C@H](CC(C)C)NC(=O)[C@H](CCCN=C(N)N)NC(=O)[C@@H](NC(=O)[C@H](Cc1ccc(O)cc1)NC(=O)[C@H](CC(N)=O)NC(=O)[C@H](CC(=O)O)NC(=O)[C@@H](NC(=O)[C@H](Cc1ccccc1)NC(=O)[C@@H](NC(=O)[C@H](C)NC(=O)[C@H](CC(=O)O)NC(=O)[C@H](CO)NC(=O)[C@@H](N)Cc1c[nH]cn1)C(C)C)[C@@H](C)O)[C@@H](C)O)C(C)C)C(=O)N[C@@H](CC(C)C)C(=O)N[C@@H](CC(N)=O)C(N)=O [VIP, Vasoactive intestinal peptide]",VIP concentration in follicular fluid over time (biological stability),significant reduction

# From publication PMC11106456, “Increased Vasoactive Intestinal Peptide (VIP) in polycystic ovary syndrome patients undergoing IVF” (Frontiers in Endocrinology, 2024)
